From patent publication US10104891B2 (priority 2014, dated 2018)

Assays:
Type in all cases: in vivo
Plasmopara viticola = experiment: Test 3: control effect against grape downy mildew; settings: control value vs untreated section; for pest or weed control at 4 µg/mL: Plasmopara viticola, 120 h
Procedure, shortened: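 Leaf lesion area, scored 5 days after inoculation and compared with untreated plants, gives the control value. Inoculation used P. viticola zoospores (1.0×10^4 units/ml) with a 16 hr moist incubation at 22° C. It followed by one day a spray of 4 ppm compound (wettable powder in Tween20) onto Neomuscat seedlings.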

[1] = system: Pseudoperonospora cubensis; experiment: Test 2: control effect against cucumber downy mildew; settings: control value vs untreated section; for pest or weed control at 4 µg/mL: Pseudoperonospora cubensis, 120 h
Procedure, shortened: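 Protective test: zoospores (1.0×10^4 units/ml) misted one day after applying a 4 ppm suspension (wettable powder diluted in 1/5000 Tween20) to 2-leaf cucumber, Sagami hanjiro. After 16 hr at 22° C humid incubation, leaf lesion area read at day 5, expressed as control value versus untreated leaves.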

Phytophthora infestans = experiment: whole plant or invertebrate; settings: for pest or weed control at 4 µg/mL: Phytophthora infestans, in Solanum lycopersicum, 96 h, read-out: control value (Test 1); for control value (Test 1): tomato late blight, control value vs untreated section

CS(=O)(=O)Oc1c(F)ccc2c1COC(c1csc(C3CCN(C(=O)Cn4nc(C(F)(F)F)cc4C(F)(F)F)CC3)n1)OC2 (stereo not drawn) [Compound 1-131, 4-[4-(7-fluoro-6-methylsulfonyloxy-1,5-dihydro-3H-2,4-benzodioxepin-3-yl)-2-thiazolyl]-1-[2-[3,5-bis(trifluoromethyl)-1H-pyrazole-1-yl]acetyl]piperidine]
pest or weed control at 4 µg/mL (Plasmopara viticola): 100% | pest or weed control at 4 µg/mL [1]: 100% | pest or weed control at 4 µg/mL (Phytophthora infestans): 100%

CS(=O)(=O)Oc1c(F)ccc2c1COC(c1csc(C3CCN(C(=O)Cn4nc(C(F)F)cc4C(F)F)CC3)n1)OC2 (stereo not drawn) [Compound 1-132, 4-[4-(7-fluoro-6-methylsulfonyloxy-1,5-dihydro-3H-2,4-benzodioxepin-3-yl)-2-thiazolyl]-1-[2-[3,5-bis(difluoromethyl)-1H-pyrazole-1-yl]acetyl]piperidine]
pest or weed control at 4 µg/mL (Plasmopara viticola): 100% | pest or weed control at 4 µg/mL [1]: 100% | pest or weed control at 4 µg/mL (Phytophthora infestans): 100%

COc1ccc(C)c2c1COC(c1csc(C3CCN(C(=O)Cn4nc(C(F)(F)F)cc4C(F)(F)F)CC3)n1)OC2 (stereo not drawn) [Compound 1-134]
control value (Test 3) (Plasmopara viticola): 100 | control value (Test 2) [1]: 100 | control value (Test 1) (Phytophthora infestans): 100

COc1cccc2c1COC(c1csc(C3CCN(C(=O)Cn4nc(C(F)(F)F)cc4C)CC3)n1)OC2 (stereo not drawn) [Compound 1-135]
control value (Test 3) (Plasmopara viticola): 100 | control value (Test 2) [1]: 100 | control value (Test 1) (Phytophthora infestans): 100

O=C(Cn1nc(C(F)F)cc1C(F)F)N1CCC(c2nc(C3OCc4cccc(OC(F)F)c4CO3)cs2)CC1 (stereo not drawn) [Compound 1-136]
control value (Test 3) (Plasmopara viticola): 100 | control value (Test 2) [1]: 100 | control value (Test 1) (Phytophthora infestans): 100

O=C(Cn1nc(C(F)(F)F)cc1C(F)(F)F)N1CCC(c2nc(C3OCc4cccc(OC(F)F)c4CO3)cs2)CC1 (stereo not drawn) [Compound 1-137]
control value (Test 3) (Plasmopara viticola): 100 | control value (Test 2) [1]: 100 | control value (Test 1) (Phytophthora infestans): 100

CS(=O)(=O)Oc1ccc2c(c1)COC(c1csc(C3CCN(C(=O)Cn4nc(C(F)F)cc4C(F)F)CC3)n1)OC2 (stereo not drawn) [Compound 1-138]
control value (Test 3) (Plasmopara viticola): 100 | control value (Test 2) [1]: 100 | control value (Test 1) (Phytophthora infestans): 100

CS(=O)(=O)Oc1ccc2c(c1)COC(c1csc(C3CCN(C(=O)Cn4nc(C(F)(F)F)cc4C(F)(F)F)CC3)n1)OC2 (stereo not drawn) [Compound 1-139]
control value (Test 3) (Plasmopara viticola): 100 | control value (Test 2) [1]: 100 | control value (Test 1) (Phytophthora infestans): 100

COc1cccc2c1COC(c1csc(C3CCN(C(=O)Cn4nc(C(F)F)cc4C(F)F)CC3)n1)OC2 (stereo not drawn) [Compound 1-141]
control value (Test 3) (Plasmopara viticola): 100 | control value (Test 2) [1]: 100 | control value (Test 1) (Phytophthora infestans): 100

COc1ccc(F)c2c1COC(c1csc(C3CCN(C(=O)Cn4nc(C(F)(F)F)cc4C(F)(F)F)CC3)n1)OC2 (stereo not drawn) [Compound 1-142]
control value (Test 3) (Plasmopara viticola): 100 | control value (Test 2) [1]: 100 | control value (Test 1) (Phytophthora infestans): 100

Cc1cc(C(F)(F)F)nn1CC(=O)N1CCC(c2nc(C3OCc4c(OC(F)F)ccc(OS(C)(=O)=O)c4CO3)cs2)CC1 (stereo not drawn) [Compound 1-143]
control value (Test 3) (Plasmopara viticola): 100 | control value (Test 2) [1]: 100 | control value (Test 1) (Phytophthora infestans): 100

O=C(Cn1nc(C(F)F)cc1C(F)F)N1CCC(c2nc(C3OCc4cccc(C=NO)c4CO3)cs2)CC1 (stereo not drawn) [Compound 1-145]
control value (Test 3) (Plasmopara viticola): 100 | control value (Test 2) [1]: 100 | control value (Test 1) (Phytophthora infestans): 100

CS(=O)(=O)Oc1ccc(OS(C)(=O)=O)c2c1COC(c1csc(C3CCN(C(=O)Cn4nc(C(F)F)cc4C(F)F)CC3)n1)OC2 [Compound 1-146]
control value (Test 3) (Plasmopara viticola): 100 | control value (Test 2) [1]: 100 | control value (Test 1) (Phytophthora infestans): 100

CS(=O)(=O)Oc1ccc(OS(C)(=O)=O)c2c1COC(c1csc(C3CCN(C(=O)Cn4nc(C(F)(F)F)cc4C(F)(F)F)CC3)n1)OC2 [Compound 1-147, 4-[4-[6,9-bis(methylsulfonyloxy)-1,5-dihydro-3H-2,4-benzodioxepin-3-yl]-2-thiazolyl]-1-[2-[3,5-bis(trifluoromethyl)-1H-pyrazole-1-yl]acetyl]piperidine]
pest or weed control at 4 µg/mL (Plasmopara viticola): 70% | pest or weed control at 4 µg/mL [1]: 90% | pest or weed control at 4 µg/mL (Phytophthora infestans): 90%

N#Cc1cccc2c1COC(c1csc(C3CCN(C(=O)Cn4nc(C(F)F)cc4C(F)F)CC3)n1)OC2 (stereo not drawn) [Compound 1-148]
control value (Test 3) (Plasmopara viticola): 100 | control value (Test 2) [1]: 100 | control value (Test 1) (Phytophthora infestans): 100

O=C(Cn1nc(C(F)(F)F)cc1C(F)(F)F)N1CCC(c2nc(C3OCc4cccc(C=NO)c4CO3)cs2)CC1 (stereo not drawn) [Compound 1-149]
control value (Test 3) (Plasmopara viticola): 100 | control value (Test 2) [1]: 100 | control value (Test 1) (Phytophthora infestans): 100

N#Cc1cccc2c1COC(c1csc(C3CCN(C(=O)Cn4nc(C(F)(F)F)cc4C(F)(F)F)CC3)n1)OC2 (stereo not drawn) [Compound 1-150]
control value (Test 3) (Plasmopara viticola): 100 | control value (Test 2) [1]: 100 | control value (Test 1) (Phytophthora infestans): 100

CS(=O)(=O)Oc1cccc2c1COC(c1csc(N3CCN(C(=O)Cn4nc(C(F)F)cc4C(F)F)CC3)n1)OC2 (stereo not drawn) [Compound 1-151]
control value (Test 3) (Plasmopara viticola): 100 | control value (Test 2) [1]: 100 | control value (Test 1) (Phytophthora infestans): 100

Cc1cc(C(F)(F)F)nn1C(C)C(=O)N1CCC(c2nc(C3OCc4cccc(OS(C)(=O)=O)c4CO3)cs2)CC1 (stereo not drawn) [Compound 1-152]
control value (Test 3) (Plasmopara viticola): 100 | control value (Test 2) [1]: 100 | control value (Test 1) (Phytophthora infestans): 100

Cc1cc(C(F)F)nn1CC(=O)N1CCC(c2nc(C3OCc4c(F)ccc(OS(C)(=O)=O)c4CO3)cs2)CC1 (stereo not drawn) [Compound 1-153]
control value (Test 3) (Plasmopara viticola): 100 | control value (Test 2) [1]: 100 | control value (Test 1) (Phytophthora infestans): 100

Cc1cc(C(F)(F)F)nn1CC(=O)N1CCC(c2nc(C3(C)OCc4c(F)ccc(OS(C)(=O)=O)c4CO3)cs2)CC1 (stereo not drawn) [Compound 1-154]
control value (Test 3) (Plasmopara viticola): 100 | control value (Test 2) [1]: 100 | control value (Test 1) (Phytophthora infestans): 90

Cc1cc(C(F)(F)F)nn1C(F)(F)C(=O)N1CCC(c2nc(C3OCc4c(F)ccc(OS(C)(=O)=O)c4CO3)cs2)CC1 (stereo not drawn) [Compound 1-155]
control value (Test 3) (Plasmopara viticola): 100 | control value (Test 2) [1]: 100 | control value (Test 1) (Phytophthora infestans): 100

Cc1cc(C(F)(F)F)nn1C(C)C(=O)N1CCC(c2nc(C3OCc4c(F)ccc(OS(C)(=O)=O)c4CO3)cs2)CC1 (stereo not drawn) [Compound 1-156]
control value (Test 3) (Plasmopara viticola): 100 | control value (Test 2) [1]: 100 | control value (Test 1) (Phytophthora infestans): 100

Cc1cc(C(F)(F)F)nn1CC(=O)N1CCC(c2nc(C3OCc4c(F)ccc(OS(C)(=O)=O)c4CO3)cs2)C(C)C1 (stereo not drawn) [Compound 1-157]
control value (Test 3) (Plasmopara viticola): 100 | control value (Test 2) [1]: 100 | control value (Test 1) (Phytophthora infestans): 100

Cc1cc(C(F)(F)F)nn1CC(=O)N1CCC(c2nc(C3OCc4c(F)ccc(OS(C)(=O)=O)c4CO3)cs2)CC1C (stereo not drawn) [Compound 1-159]
control value (Test 3) (Plasmopara viticola): 100 | control value (Test 2) [1]: 100 | control value (Test 1) (Phytophthora infestans): 100

CC(C(=O)N1CCC(c2nc(C3OCc4c(F)ccc(OS(C)(=O)=O)c4CO3)cs2)CC1)n1nc(C(F)F)cc1C(F)F (stereo not drawn) [Compound 1-160]
control value (Test 3) (Plasmopara viticola): 100 | control value (Test 2) [1]: 100 | control value (Test 1) (Phytophthora infestans): 100

Cc1cc(C(F)(F)F)nn1CC(=O)N1CCC(c2nc(C3OCc4c(O)ccc(F)c4CO3)cs2)CC1 (stereo not drawn) [Compound 1-161]
control value (Test 3) (Plasmopara viticola): 100 | control value (Test 2) [1]: 100 | control value (Test 1) (Phytophthora infestans): 100

Cc1ccc(C)c(CC(=O)N2CCC(c3nc(C4OCc5c(F)ccc(F)c5CO4)cs3)CC2)c1 [Compound 2-6]
control value (Test 3) (Plasmopara viticola): 100 | control value (Test 2) [1]: 100 | control value (Test 1) (Phytophthora infestans): 100

Cc1ccc(C)c(CC(=O)N2CCC(c3nc(C4OCc5c(F)ccc(OS(C)(=O)=O)c5CO4)cs3)CC2)c1 (stereo not drawn) [Compound 2-8]
control value (Test 3) (Plasmopara viticola): 100 | control value (Test 2) [1]: 100 | control value (Test 1) (Phytophthora infestans): 100

COc1ccc([N+](=O)[O-])c2c1COC(c1csc(C3CCN(C(=O)Cc4cc(C)ccc4C)CC3)n1)OC2 (stereo not drawn) [Compound 2-9]
control value (Test 3) (Plasmopara viticola): 100 | control value (Test 2) [1]: 100 | control value (Test 1) (Phytophthora infestans): 100

Cc1ccc(C)c(CC(=O)N2CCC(c3nc(C4OCc5ccccc5CO4)cs3)CC2)c1 [Compound 2-11]
control value (Test 3) (Plasmopara viticola): 100 | control value (Test 2) [1]: 100 | control value (Test 1) (Phytophthora infestans): 100

CCCCS(=O)(=O)Oc1cccc2c1COC(c1csc(C3CCN(C(=O)Cc4cc(C)ccc4C)CC3)n1)OC2 (stereo not drawn) [Compound 2-12, 4-[4-(6-butylsulfonyloxy-1,5-dihydro-3H-2,4-benzodioxepin-3-yl)-2-thiazolyl]-1-[2-(2,5-dimethylphenyl)acetyl]piperidine]
pest or weed control at 4 µg/mL (Plasmopara viticola): 80% | pest or weed control at 4 µg/mL [1]: 90% | pest or weed control at 4 µg/mL (Phytophthora infestans): 80%

Cc1ccc(C)c(NC(=O)N2CCC(c3nc(C4OCc5c(F)ccc(OS(C)(=O)=O)c5CO4)cs3)CC2)c1 (stereo not drawn) [Compound 2-14]
control value (Test 3) (Plasmopara viticola): 100 | control value (Test 2) [1]: 100 | control value (Test 1) (Phytophthora infestans): 100

Cc1ccc(C)c(NC(=O)N2CCC(c3nc(C4OCc5c(F)ccc(F)c5CO4)cs3)CC2)c1 [Compound 2-15]
control value (Test 3) (Plasmopara viticola): 100 | control value (Test 2) [1]: 100 | control value (Test 1) (Phytophthora infestans): 100

CS(=O)(=O)Oc1ccc(F)c2c1COC(c1csc(C3CCN(C(=O)Cc4cc(Cl)ccc4Cl)CC3)n1)OC2 (stereo not drawn) [Compound 2-16]
control value (Test 3) (Plasmopara viticola): 100 | control value (Test 2) [1]: 100 | control value (Test 1) (Phytophthora infestans): 100

Cc1ccc(C)c(CC(=O)N2CCC(c3nc(C4OCc5cccc(Br)c5CO4)cs3)CC2)c1 (stereo not drawn) [Compound 2-17]
control value (Test 3) (Plasmopara viticola): 100 | control value (Test 2) [1]: 100 | control value (Test 1) (Phytophthora infestans): 90

O=C(Cc1cc(Cl)ccc1Cl)N1CCC(c2nc(C3OCc4ccc([N+](=O)[O-])cc4CO3)cs2)CC1 (stereo not drawn) [Compound 2-21]
control value (Test 3) (Plasmopara viticola): 100 | control value (Test 2) [1]: 100 | control value (Test 1) (Phytophthora infestans): 50
